Results: PubChem BioAssay (NCI)
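Test compounds were applied to cells in 96-well plates for 48 hours at 5 doses. GI50: concentration for 50% inhibition of growth. Definition used: TGI = concentration required for complete inhibition of growth.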

Experiments:
Test in all cases: inhibition of tumour cell growth, NCI panel, 48 h
SK-MEL-2 melanoma = system: SK-MEL-2 melanoma
M14 melanoma = system: M14 melanoma
HL-60(TB) leukemia = system: HL-60(TB) leukemia
MDA-MB-435 = system: MDA-MB-435
UACC-257 melanoma = system: UACC-257 melanoma
HCC-2998 colon = system: HCC-2998 colon
SK-OV-3 ovarian = system: SK-OV-3 ovarian
LOX IMVI melanoma = system: LOX IMVI melanoma
K-562 leukemia = system: K-562 leukemia
A498 renal = system: A498 renal
COLO 205 colon = system: COLO 205 colon
NCI-H522 lung = system: NCI-H522 lung
A549 NSCLC = system: A549 NSCLC
SK-MEL-28 melanoma = system: SK-MEL-28 melanoma
RXF 393 renal = system: RXF 393 renal
SF-295 CNS = system: SF-295 CNS
RPMI-8226 leukemia = system: RPMI-8226 leukemia
U251 CNS = system: U251 CNS
CAKI-1 renal = system: CAKI-1 renal
CCRF-CEM leukemia = system: CCRF-CEM leukemia
SF-268 CNS = system: SF-268 CNS
MDA-MB-231 breast = system: MDA-MB-231 breast
OVCAR-3 ovarian = system: OVCAR-3 ovarian
T-47D breast = system: T-47D breast
SNB-75 CNS = system: SNB-75 CNS
HT29 colon = system: HT29 colon
UACC-62 melanoma = system: UACC-62 melanoma
IGROV1 ovarian = system: IGROV1 ovarian
SR leukemia = system: SR leukemia
OVCAR-8 ovarian = system: OVCAR-8 ovarian
KM12 colon = system: KM12 colon
MDA-MB-468 breast = system: MDA-MB-468 breast
SN12C renal = system: SN12C renal
NCI-H226 lung = system: NCI-H226 lung
UO-31 renal = system: UO-31 renal
HOP-62 NSCLC = system: HOP-62 NSCLC
HOP-92 NSCLC = system: HOP-92 NSCLC
MCF7 breast = system: MCF7 breast
BT-549 breast = system: BT-549 breast
SNB-19 CNS = system: SNB-19 CNS
SF-539 CNS = system: SF-539 CNS
OVCAR-5 ovarian = system: OVCAR-5 ovarian
PC-3 prostate = system: PC-3 prostate
EKVX NSCLC = system: EKVX NSCLC
SK-MEL-5 melanoma = system: SK-MEL-5 melanoma
786-0 renal = system: 786-0 renal
MOLT-4 leukemia = system: MOLT-4 leukemia
HS 578T breast = system: HS 578T breast
OVCAR-4 ovarian = system: OVCAR-4 ovarian
MALME-3M melanoma = system: MALME-3M melanoma
TK-10 renal = system: TK-10 renal
NCI-H460 lung = system: NCI-H460 lung
DU-145 prostate = system: DU-145 prostate
HCT-116 colon = system: HCT-116 colon
NCI-H23 lung = system: NCI-H23 lung
ACHN renal = system: ACHN renal
SW-620 colon = system: SW-620 colon
HCT-15 colon = system: HCT-15 colon
NCI/ADR-RES ovarian = system: NCI/ADR-RES ovarian

## NS(=O)(=O)c1cccc(Nc2nc(SCC(=O)c3ccc(F)cc3)nc3ccccc23)c1
SK-MEL-2 melanoma
  GI50: 13.5 µM
  TGI: > 57.7 µM
M14 melanoma
  GI50: 27.2 µM
  TGI: > 57700 nM
HL-60(TB) leukemia
  GI50: 15 µM
  TGI: 48.9 µM
MDA-MB-435
  GI50: 14.2 µM
  TGI: > 57.7 µM
UACC-257 melanoma
  GI50: 23.4 µM
  TGI: > 57.7 µM
HCC-2998 colon
  GI50: 15.7 µM
  TGI: > 57.7 µM
SK-OV-3 ovarian
  GI50: 30.4 µM
  TGI: > 57.7 µM
LOX IMVI melanoma
  GI50: 14.3 µM
  TGI: > 57700 nM
K-562 leukemia
  GI50: 13 µM
  TGI: > 57.7 µM
A498 renal
  GI50: > 57.7 µM
  TGI: > 57.7 µM
COLO 205 colon
  GI50: 26.8 µM
  TGI: > 57700 nM
NCI-H522 lung
  GI50: 11.7 µM
  TGI: 54.3 µM
A549 NSCLC
  GI50: 26.8 µM
  TGI: > 57.7 µM
SK-MEL-28 melanoma
  GI50: 20.4 µM
  TGI: > 57700 nM
RXF 393 renal
  GI50: 16.5 µM
  TGI: > 57700 nM
SF-295 CNS
  GI50: 14.6 µM
  TGI: > 57.7 µM
RPMI-8226 leukemia
  GI50: 12.7 µM
  TGI: > 57700 nM
U251 CNS
  GI50: 18.6 µM
  TGI: > 57700 nM
CAKI-1 renal
  GI50: 13.1 µM
  TGI: > 57700 nM
CCRF-CEM leukemia
  GI50: 7.76 µM
  TGI: > 57.7 µM
SF-268 CNS
  GI50: 21 µM
  TGI: > 57.7 µM
MDA-MB-231 breast
  GI50: 15.9 µM
  TGI: > 57.7 µM
OVCAR-3 ovarian
  GI50: 12.9 µM
  TGI: > 57700 nM
T-47D breast
  GI50: 3180 nM
  TGI: > 57700 nM
SNB-75 CNS
  GI50: 3640 nM
  TGI: > 57.7 µM
HT29 colon
  GI50: 20 µM
  TGI: > 57.7 µM
UACC-62 melanoma
  GI50: 13.7 µM
  TGI: > 57700 nM
IGROV1 ovarian
  GI50: 9.82 µM
  TGI: > 57.7 µM
SR leukemia
  GI50: 15.9 µM
  TGI: > 57.7 µM
OVCAR-8 ovarian
  GI50: 19.6 µM
  TGI: > 57.7 µM
KM12 colon
  GI50: 7.42 µM
  TGI: > 57.7 µM
MDA-MB-468 breast
  GI50: 6.23 µM
  TGI: 42.8 µM
SN12C renal
  GI50: 17.6 µM
  TGI: > 57700 nM
NCI-H226 lung
  GI50: 12.1 µM
  TGI: > 57.7 µM
UO-31 renal
  GI50: 15.5 µM
  TGI: > 57700 nM
HOP-62 NSCLC
  GI50: 22.2 µM
  TGI: > 57.7 µM
HOP-92 NSCLC
  GI50: 16.4 µM
  TGI: > 57.7 µM
MCF7 breast
  GI50: 3810 nM
  TGI: > 57.7 µM
BT-549 breast
  GI50: 31.3 µM
  TGI: > 57700 nM
SNB-19 CNS
  GI50: 22.3 µM
  TGI: > 57.7 µM
SF-539 CNS
  GI50: 20 µM
  TGI: > 57700 nM
OVCAR-5 ovarian
  GI50: 24.5 µM
  TGI: > 57.7 µM
PC-3 prostate
  GI50: 16.8 µM
  TGI: > 57.7 µM
EKVX NSCLC
  GI50: 18.4 µM
  TGI: > 57.7 µM
SK-MEL-5 melanoma
  GI50: 12.9 µM
  TGI: 54.6 µM
786-0 renal
  GI50: 39.1 µM
  TGI: > 57.7 µM
MOLT-4 leukemia
  GI50: 7.43 µM
  TGI: 41.3 µM
HS 578T breast
  GI50: 12.9 µM
  TGI: > 57.7 µM
OVCAR-4 ovarian
  GI50: 9.34 µM
  TGI: > 57700 nM
MALME-3M melanoma
  GI50: 27.1 µM
  TGI: > 57.7 µM
TK-10 renal
  GI50: > 57700 nM
  TGI: > 57.7 µM
NCI-H460 lung
  GI50: 15.1 µM
  TGI: > 57.7 µM
DU-145 prostate
  GI50: 19.9 µM
  TGI: > 57.7 µM
HCT-116 colon
  GI50: 15.3 µM
  TGI: > 57700 nM
NCI-H23 lung
  GI50: 16.5 µM
  TGI: > 57.7 µM
ACHN renal
  GI50: 24.7 µM
  TGI: > 57700 nM
SW-620 colon
  GI50: 18.1 µM
  TGI: > 57700 nM
HCT-15 colon
  GI50: 11.6 µM
  TGI: > 57700 nM
NCI/ADR-RES ovarian
  GI50: 37.3 µM
  TGI: > 57.7 µM

## N#Cc1c(NC(=O)c2ccc(C(F)(F)F)c(Cl)c2)sc2c1CCC(=O)C2
SK-MEL-2 melanoma
  GI50: 1.94 µM
  TGI: 4.38 µM
M14 melanoma
  GI50: 0.922 µM
  TGI: 2690 nM
HL-60(TB) leukemia
  GI50: 1.16 µM
  TGI: 5.39 µM
MDA-MB-435
  GI50: 1.6 µM
  TGI: 3.08 µM
UACC-257 melanoma
  GI50: 1.7 µM
  TGI: 4.35 µM
HCC-2998 colon
  GI50: 1.67 µM
  TGI: 3.35 µM
SK-OV-3 ovarian
  GI50: 2.12 µM
  TGI: 5.92 µM
LOX IMVI melanoma
  GI50: 0.561 µM
  TGI: 2040 nM
K-562 leukemia
  GI50: 0.336 µM
  TGI: 5.22 µM
A498 renal
  GI50: 12.6 µM
  TGI: 34.9 µM
COLO 205 colon
  GI50: 1.17 µM
  TGI: 2610 nM
NCI-H522 lung
  GI50: 0.346 µM
  TGI: 1.35 µM
A549 NSCLC
  GI50: 2.44 µM
  TGI: 7.66 µM
SK-MEL-28 melanoma
  GI50: 1.08 µM
  TGI: 2570 nM
RXF 393 renal
  GI50: 0.618 µM
  TGI: 1950 nM
SF-295 CNS
  GI50: 1.63 µM
  TGI: 3.41 µM
RPMI-8226 leukemia
  GI50: 0.214 µM
  TGI: 736 nM
U251 CNS
  GI50: 0.76 µM
  TGI: 2070 nM
CAKI-1 renal
  GI50: 0.725 µM
  TGI: 2120 nM
CCRF-CEM leukemia
  GI50: 0.334 µM
  TGI: 3.53 µM
SF-268 CNS
  GI50: 1.78 µM
  TGI: 5.37 µM
MDA-MB-231 breast
  GI50: 1.46 µM
  TGI: 3 µM
OVCAR-3 ovarian
  GI50: 1.43 µM
  TGI: 2990 nM
T-47D breast
  GI50: 599 nM
  TGI: 2960 nM
SNB-75 CNS
  GI50: 1350 nM
  TGI: 3.38 µM
HT29 colon
  GI50: 0.943 µM
  TGI: 3.53 µM
UACC-62 melanoma
  GI50: 1.23 µM
  TGI: 2660 nM
IGROV1 ovarian
  GI50: 1.52 µM
  TGI: 3.07 µM
SR leukemia
  GI50: 0.399 µM
  TGI: 10.3 µM
OVCAR-8 ovarian
  GI50: 1.38 µM
  TGI: 3.48 µM
KM12 colon
  GI50: 1.14 µM
  TGI: 3.53 µM
MDA-MB-468 breast
  GI50: 0.416 µM
  TGI: 1.49 µM
SN12C renal
  GI50: 0.923 µM
  TGI: 2740 nM
NCI-H226 lung
  GI50: 2.59 µM
  TGI: 8.6 µM
UO-31 renal
  GI50: 0.479 µM
  TGI: 1710 nM
HOP-62 NSCLC
  GI50: 2.16 µM
  TGI: 6.05 µM
HOP-92 NSCLC
  GI50: 1.19 µM
  TGI: 3.24 µM
MCF7 breast
  GI50: 1470 nM
  TGI: 7.5 µM
BT-549 breast
  GI50: 0.365 µM
  TGI: 1410 nM
SNB-19 CNS
  GI50: 1.67 µM
  TGI: 4.35 µM
SF-539 CNS
  GI50: 0.514 µM
  TGI: 1650 nM
OVCAR-5 ovarian
  GI50: 1.83 µM
  TGI: 3.87 µM
PC-3 prostate
  GI50: 0.448 µM
  TGI: 3.23 µM
EKVX NSCLC
  GI50: 1.9 µM
  TGI: 4.92 µM
SK-MEL-5 melanoma
  GI50: 1.58 µM
  TGI: 2.97 µM
786-0 renal
  GI50: 1.85 µM
  TGI: 5.53 µM
MOLT-4 leukemia
  GI50: 0.568 µM
  TGI: 6.26 µM
HS 578T breast
  GI50: 0.891 µM
  TGI: 3.49 µM
OVCAR-4 ovarian
  GI50: 1.32 µM
  TGI: 2860 nM
MALME-3M melanoma
  GI50: 1.26 µM
  TGI: 3.15 µM
TK-10 renal
  GI50: 2280 nM
  TGI: 7.43 µM
NCI-H460 lung
  GI50: 2.72 µM
  TGI: 8.9 µM
DU-145 prostate
  GI50: 3.93 µM
  TGI: 18.3 µM
HCT-116 colon
  GI50: 0.371 µM
  TGI: 1430 nM
NCI-H23 lung
  GI50: 1.03 µM
  TGI: 3.01 µM
ACHN renal
  GI50: 0.692 µM
  TGI: 1860 nM
SW-620 colon
  GI50: 0.4 µM
  TGI: 1790 nM
HCT-15 colon
  GI50: 0.963 µM
  TGI: 2860 nM
NCI/ADR-RES ovarian
  GI50: 1.6 µM
  TGI: 4.19 µM
